Test results published in patent US6967196B1, “Sulfonamide compounds and uses thereof” (Bristol-Myers Squibb Company, priority 1999, dated 2005).
Structures can show the parent of a compound that is named as a salt. Where two headings read alike, the source gives them in different places.

Tested on: amyloid β production in transfected H4 (human neuroglioma) cells stably expressing APP constructs
Test: In vitro cell-based assay of inhibitors of amyloid β production (ELISA)
Outline: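 Aβ secreted into the medium was determined by a two-antibody ELISA specific for the Aβ C-terminus, calibrated with known Aβ amounts. Before that, compounds (10-100 μM initially) were left on the cells for roughly 16 hours.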

[1] = Homo sapiens, 16 h, transfected H4 cells stably expressing APP, approximately 16 hours incubation, amyloid β in medium by ELISA, read-out: ACTIVITY (IC50, inhibition of amyloid β production)
[2] = transfected H4 cells stably expressing APP, approximately 16 hours incubation, amyloid β in medium by ELISA, read-out: ACTIVITY (IC50, inhibition of amyloid β production)
[3] = transfected H4 cells stably expressing APP constructs, approximately 16 hours incubation, amyloid β in medium by ELISA, read-out: ACTIVITY (IC50, inhibition of amyloid β production)
[4] = Homo sapiens, 16 h, transfected H4 cells stably expressing APP constructs, approximately 16 hours incubation, amyloid β in medium by ELISA, read-out: ACTIVITY (IC50, inhibition of amyloid β production)
[5] = transfected H4 cells stably expressing APP, approx. 16 h incubation, amyloid β in medium by ELISA, read-out: ACTIVITY (IC50, inhibition of amyloid β production)
[6] = Homo sapiens, 16 h, transfected H4 cells expressing APP, approximately 16 hours incubation, amyloid β in medium by ELISA, read-out: ACTIVITY (IC50, inhibition of amyloid β production)

O=S1(=O)CCN(CCCOc2ccccc2CN(c2ccccc2)S(=O)(=O)c2ccc(Cl)cc2)CC1 [Example 313, 4-Chloro-N-{2-[3-(1,1-dioxido-4-thiomorpholinyl)propoxy]benzyl}-N-phenylbenzenesulfonamide Hydrochloride]
IC50 (transfected H4 cells stably expressing APP, approximately 16 hours incubation, amyloid β in medium by ELISA, Table B, Hydrochloride, read-out: ACTIVITY (IC50, inhibition of amyloid β production)): 50 to 100 nM

CC#CCCCN(Cc1ccccc1OCCCN1CCCCC1)S(=O)(=O)c1ccc(Cl)cc1 [Example 842, 4-chloro-N-(4-hexynyl)-N-{2-[3-(1-piperidinyl)propoxy]benzyl}benzenesulfonamide hydrochloride]
IC50 [1]: 100 to 500 nM

N-{3-[2-({[(4-chlorophenyl)sulfonyl]-2,5-difluoroanilino}methyl)phenoxy]propyl}-N-methyl-4-nitrobenzamide [Example 872]
IC50 [2]: 100 to 500 nM

4-chloro-N-(2,5-dichlorophenyl)-N-[5-[[2-[(methylsulfonyl)-1-piperidinyl]-1(R)-methylpentyl]benzenesulfonamide [Example 1116]
IC50 [3]: 25 to 50 nM

CCCCCCCCCCCCCCCCCC(=O)N(C)CCOc1ccccc1C(C)N(c1cc(F)ccc1F)S(=O)(=O)c1ccc(Cl)cc1 (stereo not drawn) [Example 1098]
IC50 [3]: > 10000 nM

O=S(=O)(c1ccc(Cl)cc1)N(Cc1ccccc1OCCCN1CCCCC1)[C@H]1CC2CCC1C2 (stereo partly drawn) [Example 954, N-[(2S)-bicyclo[2.2.1]hept-2-yl]-4-chloro-N-{2-[3-(1-piperidinyl)propoxy]benzyl}benzenesulfonamide hydrochloride]
IC50 [1]: > 500 nM

COC(=O)C1SCCN1CCCC[C@@H](C)N(c1cc(Cl)ccc1Cl)S(=O)(=O)c1ccc(Cl)cc1 (stereo partly drawn) [Example 1117, 4-chloro-N-(2,5-dichlorophenyl)-N-[5-(2-methoxycarbonyl-3-thiazolidinyl)-1(R)-methylpentyl]benzenesulfonamide]
IC50 [4]: 25 to 50 nM

O=S(=O)(c1ccc(Cl)cc1)N(CCc1cccc(OCCCN2CCCCC2)c1)c1ccccc1 [Example 956, 4-chloro-N-phenyl-N-(2-{3-[3-(1-piperidinyl)propoxy]phenyl}ethyl)benzeneslfonamide hydrochloride]
IC50 [2]: > 500 nM

CSc1ccccc1N(Cc1ccccc1OCCCN1CCCCC1)S(=O)(=O)c1ccc(Cl)cc1 [Example 238, 4-Chloro-N-[2-(methylsulfanyl)phenyl]-N-{2-[3-(1-piperidinyl)propoxy]benzyl}benzenesulfonamide Hydrochloride]
IC50 (read-out: ACTIVITY (inhibitory concentration IC50, inhibition of amyloid β production)): 25 to 50 nM

N-{3-[2-(1-{[(4-chlorophenyl)sulfonyl]-2,5-difluoroanilino}ethyl)phenoxy]ethyl}-N-methyl-3,5-bis(trifluoromethyl)benzamide [Example 931]
IC50 [2]: > 500 nM

COC(=O)C[S+]([O-])CCc1cc(F)ccc1[C@@H](C)N(c1cc(F)ccc1F)S(=O)(=O)c1ccc(Cl)cc1 (stereo partly drawn) [Example 476, Methyl ({2-[2-((1R)-1-{[(4-chlorophenyl)sulfonyl]-2,5-difluoroanilino}ethyl)-5-fluorophenyl]ethyl}sulfinyl)acetate]
IC50 (transfected H4 cells stably expressing APP, approximately 16 hours incubation, amyloid β in medium by ELISA, Table B, read-out: ACTIVITY (IC50, inhibition of amyloid β production)): 100 to 500 nM

O=S(=O)(c1ccc(Cl)cc1)N(Cc1ccccc1OCCCN1CCCCC1)c1cccc(Br)c1 [Example 804, N-(3-bromophenyl)-4-chloro-N-{2-[3-(1-piperidinyl)propoxy]benzyl}benzenesulfonamide hydrochloride]
IC50 (Homo sapiens, 16 h, transfected H4 cells stably expressing APP, approx. 16 h incubation, amyloid β in medium by ELISA, read-out: ACTIVITY (IC50, inhibition of amyloid β production)): 100 to 500 nM

C[C@H](CCCN1CCSC1C(=O)O)N(c1cc(Cl)ccc1Cl)S(=O)(=O)c1ccc(Cl)cc1 (stereo partly drawn) [Example 1103, 4-chloro-N-(2,5-dichlorophenyl)-N-[4-(2-carboxy-3-thiazolidinyl)-1(R)-methylbutyl]benzenesulfonamide]
IC50 [4]: ≤ 25 nM

N-{3-[2-({[(4-chlorophenyl)sulfonyl]-2,5-difluoroanilino}methyl)phenoxy]propyl}-4-iodo-N-methylbenzamide [Example 765]
IC50 [5]: 100 to 500 nM

C=C(C)CN(Cc1ccccc1OCCCN1CCCCC1)S(=O)(=O)c1ccc(Cl)cc1 [Example 955, 4-chloro-N-(2-methyl-2-propenyl)-N-{2-[3-(1-piperidinyl)propoxy]benzyl}benzenesulfonamide hydrochoride]
IC50 [2]: > 500 nM

3,5-dichloro-N-{3-[2-({[(4-chlorophenyl)sulfonyl]-2,5-difluoroanilino}methyl)phenoxy]propyl}-N-methylbenzamide [Example 1002]
IC50 [2]: > 500 nM

O=S(=O)(c1ccc(Cl)cc1)N(Cc1ccccc1OCCCN1CCCCC1)Cc1c(F)c(F)c(F)c(F)c1F [Example 974, 4-chloro-N-(2,3,4,5,6-pentafluorobenzyl)-N-{2-[3-(1-piperidinyl)propoxy]benzyl}benzenesulfonamide hydrochloride]
IC50 [1]: > 500 nM

C[C@H](CCCS(=O)(=O)O)N(c1cc(Cl)ccc1F)S(=O)(=O)c1ccc(Cl)cc1 [Example 1192, (4R)-4-[N-[5-chloro-2-fluorophenyl][(4-chlorophenyl)sulfonyl]amino]pentylsulfonic acid]
IC50 [4]: 100 to 500 nM

CC(C)[C@H](NC(=O)CCC[C@@H](C)N(c1cc(Cl)ccc1F)S(=O)(=O)c1ccc(Cl)cc1)C(=O)O [Example 1268, (R)-4-Chloro-N-(5-chloro-2-fluorophenyl)-N-[5-[N-(S)-[1-(carboxy)-2-methylpropyl]amino]-1-methyl-5-oxopentyl]benzenesulfonamide]
IC50 [3]: 100 to 500 nM

CC(C)N(C(=O)N(C)CCOc1ccccc1C(C)N(c1cc(F)ccc1F)S(=O)(=O)c1ccc(Cl)cc1)C(C)C (stereo not drawn) [Example 888, 4-chloro-N-(2,5-difluorophenyl)-N-[1-(2-{2-[[(diisopropylamino)carbonyl](methyl)amino]ethoxy}phenyl)ethyl]benzenesulfonamide]
IC50 [1]: > 500 nM

O=[N+]([O-])c1ccc(S(=O)(=O)CCCOc2ccccc2CN(c2cc(F)ccc2F)S(=O)(=O)c2ccc(Cl)cc2)cc1 [Example 905, 4-chloro-N-(2,5-difluorophenyl)-N-(2-{3-[(4-nitrophenyl)sulfonyl]propoxy}benzyl)benzenesulfonamide]
IC50 [1]: > 500 nM

N-{3-[2-({[(4-chlorophenyl)sulfonyl]-2,5-difluoroanilino}methyl)phenoxy]propyl}-3-fluoro-N-methylbenzamide [Example 862]
IC50 [2]: 100 to 500 nM

CCCC(C)N(Cc1ccccc1OCCCN1CCCCC1)S(=O)(=O)c1ccc(Cl)cc1 (stereo not drawn) [Example 782, 4-chloro-N-(1-methylbutyl)-N-{2-[3-(1-piperidinyl)propoxy]benzyl}benzenesulfonamide hydrochloride]
IC50 [5]: 100 to 500 nM

4-chloro-N-{3-[2-(1-{[(4-chlorophenyl)sulfonyl]-2,5-difluoroanilino}ethyl)phenoxy]propyl}-N-methyl-3-nitrobenzenesulfonamide [Example 807]
IC50 [2]: 100 to 500 nM

C[C@H](C(=O)NCCC(c1ccccc1)c1ccccc1)N(c1cc(Cl)ccc1F)S(=O)(=O)c1ccc(Cl)cc1 [Example 1302]
IC50 [6]: > 500 nM

O=C(c1ccc(I)cc1)N1CCCCC1CCOc1ccccc1CN(c1cc(F)ccc1F)S(=O)(=O)c1ccc(Cl)cc1 (stereo not drawn) [Example 901, 4-chloro-N-(2,5-difluorophenyl)-N-(2-{2-[1-(4-iodobenzoyl)-2-piperidinyl]ethoxy}benzyl)benzenesulfonamide]
IC50 [1]: > 500 nM

C[C@H](c1ccccc1COC(=O)NCc1ccc2c(c1)OCO2)N(c1cc(F)ccc1F)S(=O)(=O)c1ccc(Cl)cc1 [Example 673, 2-((1R)-1-{[(4-chlorophenyl)sulfonyl]-2,5-difluoroanilino}ethyl)benzyl 1,3-benzodioxol-5-ylmethylcarbamate]
IC50 [5]: 100 to 500 nM

O=C(/C=C/c1ccccc1CN(c1ccccc1)S(=O)(=O)c1ccc(Cl)cc1)N1CCCC1 [Example 923]
IC50 [2]: > 500 nM

CC(C)[C@@H](NC(=O)CCC[C@@H](C)N(c1cc(Cl)ccc1F)S(=O)(=O)c1ccc(Cl)cc1)C(=O)O [Example 544, (R)-4-Chloro-N-(5-chloro-2-fluorophenyl)-N-[5-[N-(R)-[1-(carboxy)-2-methylpropyl]amino]-1-methyl-5-oxopentyl]benzenesulfonamide]
IC50 [5]: 100 to 500 nM

CCCCNC(=O)[C@@H](C)N(c1cc(Cl)ccc1F)S(=O)(=O)c1ccc(Cl)cc1 [Example 1299]
IC50 [6]: 100 to 500 nM

3,4-dichloro-N-{3-[2-(1-{[(4-chlorophenyl)sulfonyl]-2,5-difluoroanilino}ethyl)phenoxy]propyl}-N-methylbenzamide [Example 847]
IC50 [2]: 100 to 500 nM

C[C@H](COC(=O)N1CCCC1)N(c1cc(Cl)ccc1F)S(=O)(=O)c1ccc(Cl)cc1 [Example 1243, 4-Chloro-N-(2-fluoro-5-chlorophenyl)-N-[2-[[[pyrrolidin-1-yl]carbonyl]oxy]-(R)-1-methylethyl]benzenesulfonamide]
IC50 [4]: ≤ 25 nM

CCCC(c1cc(F)ccc1[C@@H](C)N(c1cc(F)ccc1F)S(=O)(=O)c1ccc(Cl)cc1)N1CCS(=O)(=O)C(C)C1 (stereo partly drawn) [Example 1278, (R)-4-Chloro-N-(2,5-difluorophenyl)-N-[1-[4-fluoro-2-[1-(1,1-dioxo-2-methyl-4-thiomorpholinyl)butyl]phenyl]ethyl]benzenesulfonamide]
IC50 [4]: ≤ 25 nM
